Values of other authors, collected in patent US20060074100A1, “Histone deacetylase inhibitors for the treatment of ocular neovascular or edematous disorders and diseases” (priority 2002, published 2006).

Assays:
[1] = system: corneal neovascularization; settings: in combination with a beta cyclodextrin
[2] = phase I clinical trials
[3] = system: cancer cell; settings: in vitro
[4] = system: tumors; settings: animal models
[5] = system: cancer cell

## C[C@]12CCC(=O)C=C1CC[C@@H]1[C@@H]2[C@@H](O)C[C@@]2(C)[C@H]1CC[C@]2(O)C(=O)CO [hydrocortisone]
[1]
  inhibition of corneal neovascularization: inhibit corneal neovascularization

## C[C@]12CC[C@@H](O)C[C@H]1CC[C@@H]1[C@@H]2CC[C@@]2(C)[C@H]1CC[C@]2(O)C(=O)CO [tetrahydrocortisol-S]
[1]
  inhibition of corneal neovascularization: inhibit corneal neovascularization

## C[C@@H]1C[C@H]2[C@@H]3C[C@H](F)C4=CC(=O)CC[C@]4(C)C3=CC[C@]2(C)[C@@]1(O)C(=O)CO [U-72,745G]
[1]
  inhibition of corneal neovascularization: inhibit corneal neovascularization

## O=C(CCCCCCC(=O)Nc1ccccc1)NO [SAHA, suberoylanilide hydroxamic acid]
[2]
  dose-limiting toxicity: almost no dose-limiting toxicity
  suppression of white blood cell production: no suppression of white blood cell production
[3]
  cancer cell growth: arrest cancer cell growth in vitro
[4]
  tumor size: shrink tumors in animal models
[5]
  induction of cancer cell differentiation: potent inducer of cancer cell differentiation
